Tests used:
alpha1A (h) = molecular target: T1, alpha1A (h) (Homo sapiens, UniProt P35348); experiment: Radioligand binding alpha1A (h) (antagonist radioligand), [^3H]prazosin, CHO cells
T1 construct: expressed in transfected cells; host or cells: CHO cells
T1 sequence (P35348 1-466): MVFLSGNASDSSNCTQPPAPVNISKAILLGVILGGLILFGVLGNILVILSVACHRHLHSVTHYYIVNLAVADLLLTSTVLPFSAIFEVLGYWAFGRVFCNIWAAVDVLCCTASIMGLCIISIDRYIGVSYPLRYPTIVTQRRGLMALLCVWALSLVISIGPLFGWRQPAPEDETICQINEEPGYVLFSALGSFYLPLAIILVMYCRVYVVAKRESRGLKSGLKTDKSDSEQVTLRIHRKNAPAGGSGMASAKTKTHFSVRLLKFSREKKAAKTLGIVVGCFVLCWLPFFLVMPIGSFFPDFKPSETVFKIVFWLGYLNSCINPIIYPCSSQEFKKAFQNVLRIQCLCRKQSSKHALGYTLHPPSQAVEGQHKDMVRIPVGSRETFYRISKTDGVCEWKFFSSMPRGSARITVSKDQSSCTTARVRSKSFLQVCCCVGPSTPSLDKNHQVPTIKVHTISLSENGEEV
Description: (§1) Methods—Binding Assays: In vitro binding assays were performed using human recombinant receptors expressed in mammalian cell lines. Receptors were expressed in either HEK-293 or CHO cells depending on the target, and assay conditions (radioligand, concentration, nonspecific competitor, temperature, and incubation time) were optimized for each receptor. All assays were conducted in triplicate, and specific binding was quantified by scintillation counting as the detection method for each listed assay.
(§2) Specific binding was expressed as a percentage of control-specific binding, and percent inhibition was calculated using the formula in Ex. 8 above. Half-maximal inhibitory concentrations (IC50) were determined by non-linear regression analysis of the inhibition curves using the Hill equation (see Ex. 8). Inhibition constants (Ki) were calculated using the Cheng-Prusoff equation (see Ex. 8). KD values used in these calculations had been previously established for each receptor under the assay conditions (see Table 6). Data analysis was performed using software developed at Cerep and validated against SigmaPlot 4.0 for Windows.

CB2 (h) = molecular target: T2, CB2 (h) (Homo sapiens, UniProt P34972); experiment: Radioligand binding CB2 (h) (agonist radioligand), [^3H]WIN 55212-2, CHO cells
T2 construct: expressed in transfected cells; host or cells: CHO cells
Description: as §1, §2

CCK1 (CCKA) (h) = molecular target: T3, CCK1 (CCKA) (h) (Homo sapiens, UniProt P32238); experiment: Radioligand binding CCK1 (CCKA) (h) (agonist radioligand), [^125I]CCK-8s, CHO cells; conditions: CCK1 (CCKA) (h) (agonist radiolig.)
T3 construct: expressed in transfected cells; host or cells: CHO cells
T3 sequence (P32238 1-428): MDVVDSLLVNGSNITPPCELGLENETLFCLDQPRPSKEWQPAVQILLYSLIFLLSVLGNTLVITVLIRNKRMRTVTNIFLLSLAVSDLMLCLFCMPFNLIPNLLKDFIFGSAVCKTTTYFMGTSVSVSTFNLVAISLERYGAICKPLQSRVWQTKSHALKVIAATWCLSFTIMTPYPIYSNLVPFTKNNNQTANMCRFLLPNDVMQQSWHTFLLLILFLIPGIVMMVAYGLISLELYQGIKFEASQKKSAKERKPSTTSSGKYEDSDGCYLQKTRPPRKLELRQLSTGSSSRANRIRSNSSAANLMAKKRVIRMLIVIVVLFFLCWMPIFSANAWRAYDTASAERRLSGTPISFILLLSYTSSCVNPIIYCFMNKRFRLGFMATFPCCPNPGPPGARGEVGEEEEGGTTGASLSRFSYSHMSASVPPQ
Description: as §1, §2

NMDA = experiment: Radioligand binding NMDA (antagonist radioligand), [^3H]CGP 39653, rat cerebral cortex
5-HT1A (h) = molecular target: T4, 5-HT1A (h) (Homo sapiens, UniProt P08908); experiment: Radioligand binding 5-HT1A (h) (agonist radioligand), [^3H]8-OH-DPAT, HEK-293 cells
T4 construct: expressed in transfected cells; host or cells: HEK-293 cells
T4 sequence (P08908 1-422): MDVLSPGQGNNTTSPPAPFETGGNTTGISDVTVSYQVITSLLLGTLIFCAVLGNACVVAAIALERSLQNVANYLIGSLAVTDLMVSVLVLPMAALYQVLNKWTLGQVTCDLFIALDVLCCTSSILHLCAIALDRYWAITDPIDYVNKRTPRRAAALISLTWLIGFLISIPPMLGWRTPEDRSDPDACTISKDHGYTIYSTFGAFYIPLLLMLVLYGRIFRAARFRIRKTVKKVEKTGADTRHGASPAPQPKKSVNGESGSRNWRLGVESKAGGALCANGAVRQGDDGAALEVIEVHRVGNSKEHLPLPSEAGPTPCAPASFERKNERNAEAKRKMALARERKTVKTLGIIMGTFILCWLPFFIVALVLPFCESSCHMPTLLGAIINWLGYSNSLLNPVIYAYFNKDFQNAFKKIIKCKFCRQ
Description: as §1, §2

V1a (h) = molecular target: T5, V1a (h) (Homo sapiens, UniProt P37288); experiment: Radioligand binding V1a (h) (agonist radioligand), [^3H]AVP, CHO cells
T5 construct: expressed in transfected cells; host or cells: CHO cells
Description: as §1, §2

alpha2A (h) = molecular target: T6, alpha2A (h) (Homo sapiens, UniProt P08913); experiment: Radioligand binding alpha2A (h) (antagonist radioligand), [^3H]RX 821002, CHO cells
T6 construct: expressed in transfected cells; host or cells: CHO cells
T6 sequence (P08913 1-465): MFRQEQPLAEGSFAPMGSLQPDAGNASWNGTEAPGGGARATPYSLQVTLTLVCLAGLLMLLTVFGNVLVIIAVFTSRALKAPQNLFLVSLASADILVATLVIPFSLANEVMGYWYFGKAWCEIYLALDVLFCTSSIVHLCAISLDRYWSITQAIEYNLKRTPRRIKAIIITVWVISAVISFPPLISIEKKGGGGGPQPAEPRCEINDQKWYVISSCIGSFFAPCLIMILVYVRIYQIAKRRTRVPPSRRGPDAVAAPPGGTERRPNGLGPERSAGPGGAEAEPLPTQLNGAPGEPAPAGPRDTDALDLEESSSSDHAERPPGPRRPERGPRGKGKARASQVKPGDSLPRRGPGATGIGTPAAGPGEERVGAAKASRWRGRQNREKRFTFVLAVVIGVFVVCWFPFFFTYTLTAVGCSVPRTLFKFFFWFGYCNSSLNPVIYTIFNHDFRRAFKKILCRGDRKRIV
Description: as §1, §2

M2 (h) = molecular target: T7, M2 (h) (Homo sapiens, UniProt P08172); experiment: Radioligand binding M2 (h) (antagonist radioligand), [^3H]AF-DX 384, CHO cells
T7 construct: expressed in transfected cells; host or cells: CHO cells
T7 sequence (P08172 1-466): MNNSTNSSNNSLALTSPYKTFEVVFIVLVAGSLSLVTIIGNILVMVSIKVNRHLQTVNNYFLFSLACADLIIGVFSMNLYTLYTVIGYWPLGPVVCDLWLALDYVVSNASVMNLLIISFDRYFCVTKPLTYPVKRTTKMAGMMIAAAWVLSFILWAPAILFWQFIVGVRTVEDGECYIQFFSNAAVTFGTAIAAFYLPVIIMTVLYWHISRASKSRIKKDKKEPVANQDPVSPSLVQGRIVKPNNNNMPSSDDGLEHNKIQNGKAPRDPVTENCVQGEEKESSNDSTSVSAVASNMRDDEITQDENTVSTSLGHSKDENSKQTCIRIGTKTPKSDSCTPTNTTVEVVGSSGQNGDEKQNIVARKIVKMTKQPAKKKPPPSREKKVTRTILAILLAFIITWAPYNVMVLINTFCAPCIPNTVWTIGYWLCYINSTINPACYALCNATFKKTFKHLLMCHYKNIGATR
Description: as §1, §2

T5 sequence (P37288 whole entry): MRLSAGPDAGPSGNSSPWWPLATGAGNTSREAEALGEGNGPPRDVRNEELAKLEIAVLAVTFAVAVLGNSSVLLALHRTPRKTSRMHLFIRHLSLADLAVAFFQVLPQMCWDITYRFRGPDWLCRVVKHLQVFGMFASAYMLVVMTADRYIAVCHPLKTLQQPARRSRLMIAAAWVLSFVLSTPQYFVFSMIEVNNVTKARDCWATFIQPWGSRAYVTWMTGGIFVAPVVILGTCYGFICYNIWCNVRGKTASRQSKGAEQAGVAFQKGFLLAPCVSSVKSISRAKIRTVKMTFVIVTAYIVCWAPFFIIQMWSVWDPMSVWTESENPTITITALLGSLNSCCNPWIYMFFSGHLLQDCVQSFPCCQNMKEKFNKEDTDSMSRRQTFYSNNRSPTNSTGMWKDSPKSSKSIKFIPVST
T2 sequence (P34972 whole entry): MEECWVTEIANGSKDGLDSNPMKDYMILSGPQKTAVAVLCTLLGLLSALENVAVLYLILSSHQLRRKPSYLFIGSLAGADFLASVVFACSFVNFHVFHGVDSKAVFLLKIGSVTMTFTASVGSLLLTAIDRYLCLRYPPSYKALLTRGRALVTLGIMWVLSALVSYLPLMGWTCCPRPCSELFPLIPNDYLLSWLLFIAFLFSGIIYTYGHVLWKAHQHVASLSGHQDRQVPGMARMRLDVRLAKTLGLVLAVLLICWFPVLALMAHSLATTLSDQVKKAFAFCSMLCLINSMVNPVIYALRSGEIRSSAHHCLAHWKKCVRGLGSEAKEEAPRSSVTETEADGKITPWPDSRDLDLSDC

| Structure (SMILES) | Mean Percent Inhibition of Control Specific Binding (alpha1A (h)) [%] | Mean Percent Inhibition of Control Specific Binding (CB2 (h)) [%] | Mean Percent Inhibition of Control Specific Binding (CCK1 (CCKA) (h)) [%] | Mean Percent Inhibition of Control Specific Binding (NMDA) [%] | Mean Percent Inhibition of Control Specific Binding (5-HT1A (h)) [%] | Mean Percent Inhibition of Control Specific Binding (V1a (h)) [%] | Mean Percent Inhibition of Control Specific Binding (alpha2A (h)) [%] | Mean Percent Inhibition of Control Specific Binding (M2 (h)) [%] |
| --- | --- | --- | --- | --- | --- | --- | --- | --- |
| COCc1cc(CCN)c(O)cc1CC(C)C [2CiBu-2OH-5MM, 2-(2-aminoethyl)-5-isobutyl-4-(methoxymethyl)phenol] | 51.6 | −6.0 | −0.1 | −24.3 | 34.8 | 4.8 | 79.4 | 14.9 |
| COCCc1cc(CCN)c(OC)cc1Br [Compound 2CB-5ME, reference compound] | 33.6 | −22.8 | 3.3 | 3.5 | 98.2 | 11.2 | 73.0 | 21.5 |
| COCc1cc(CCN)c(OC)cc1Br [Compound 2CB-5MM, 2-(4-bromo-2-methoxy-5-(methoxymethyl)phenyl)ethan-1-amine] | 29.4 | −14.9 | −11.5 | 4.7 | 95.1 | 5.5 | 80.2 | 10.0 |
| COCc1cc(CCN)c(OC)cc1CC(C)C [Compound 2CiBu-5MM, 2-[4-isobutyl-2-methoxy-5-(methoxymethyl)phenyl]ethanamine] | 7.6 | 17.8 | 12.2 | 12.0 | 76.5 | 5.3 | 88.5 | 16.0 |

From patent US12692221B2 (priority 2024, dated 2026)
